Experimental data as given in PubChem BioAssay AID330 (DTP/NCI, 2004).
“And” between values parts separate entries of the source, which are not always exact repeats. Identical values can stand only once. Toxic doses and inconclusive results are not listed. Square brackets hold non-standard residues; d marks the D form. Peptide text beside a SMILES is read from it. ξ: configuration not given here. ξPhe(4-N(CH2CH2Cl)2) = NC(Cc1ccc(N(CCCl)CCCl)cc1)C(=O)O

Test system: P388 leukemia ip, CD2F1 mice, survival T/C
Assay: NCI In Vivo Anticancer Drug Screen. Data for tumor model P388 Leukemia (intraperitoneal) in CD2F1 (CDF1) mice
Settings: endpoint: median survival time, higher = longer survival
Procedure, shortened: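 Mice carrying the transplanted tumor received test compound or vehicle. Survival was recorded in each group, and the value is the treated-group measurement divided by that of the vehicle-treated control group.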

[1] = dose: 50.0 mg/kg/injection, schedule: Q01DX009 (ip), vehicle: saline with Tween-80
[2] = dose: 100.0 mg/kg/injection, schedule: Q01DX009 (ip), vehicle: saline with Tween-80
[3] = dose: 200.0 mg/kg/injection, schedule: Q01DX009 (ip), vehicle: saline with Tween-80
[4] = dose: 12.5 mg/kg/injection, schedule: Q01DX009 (ip), vehicle: distilled water + Tween-80
[5] = dose: 25.0 mg/kg/injection, schedule: Q01DX009 (ip), vehicle: distilled water + Tween-80
[6] = dose: 25.0 mg/kg/injection, schedule: Q01DX009 (ip), vehicle: saline
[7] = dose: 50.0 mg/kg/injection, schedule: Q01DX009 (ip), vehicle: saline
[8] = dose: 100.0 mg/kg/injection, schedule: Q01DX009 (ip), vehicle: saline
[9] = dose: 200.0 mg/kg/injection, schedule: Q01DX009 (ip), vehicle: saline
[10] = dose: 25.0 mg/kg/injection, schedule: Q01DX009 (ip), vehicle: saline with Tween-80

Structure (SMILES): NC1=NS(=O)(=O)Nc2nc[nH]c21
- T/C [1]: 101 % of control
- T/C [2]: 100 % of control

Structure (SMILES): C(=Nc1cccc2ccccc12)Nc1cccc2ccccc12.[Cu+2]
- T/C [1]: 96 % of control
- T/C [2]: 98 % of control
- T/C [3]: 95 % of control

Structure (SMILES): O=[N+]([O-])c1cc(F)cc([N+](=O)[O-])c1O
- T/C (dose: 12.5 mg/kg/injection, schedule: Q01DX009 (ip), vehicle: Klucel (hydroxypropylcellulose) (HPC)): 102 % of control
- T/C (dose: 25.0 mg/kg/injection, schedule: Q01DX009 (ip), vehicle: Klucel (hydroxypropylcellulose) (HPC)): 102 % of control
- T/C (dose: 50.0 mg/kg/injection, schedule: Q01DX009 (ip), vehicle: Klucel (hydroxypropylcellulose) (HPC)): 112 % of control

Structure (SMILES): CC(C)CCCCCCCCCCCCC(=O)NCCC(=O)NC1C(CO)OC(Nc2ncnc3nc[nH]c23)C(O)C1O (configuration not stated)
- T/C (dose: 0.39 mg/kg/injection, schedule: Q01DX009 (ip), vehicle: other): 107 % of control
- T/C (dose: 0.78 mg/kg/injection, schedule: Q01DX009 (ip), vehicle: other): 102 % of control
- T/C (dose: 1.56 mg/kg/injection, schedule: Q01DX009 (ip), vehicle: other): 156 % of control
- T/C (dose: 6.25 mg/kg/injection, schedule: Q01DX009 (ip), vehicle: other): 112 % of control and 96 % of control
- T/C (dose: 12.5 mg/kg/injection, schedule: Q01DX009 (ip), vehicle: other): 93 % of control

Structure (SMILES): CNCc1nc2sc3c(c2c(=O)[nH]1)CCCC3
- T/C [1]: 97 % of control
- T/C [2]: 105 % of control
- T/C [3]: 102 % of control

Structure (SMILES): COc1ccc2c(c1)CCn1c(C)c(COC(=O)NC(C)C)c(COC(=O)NC(C)C)c1-2
- T/C [4]: 153 % of control and 160 % of control
- T/C [5]: 153 % of control and 164 % of control

Structure (SMILES): COc1ccc2c(c1)C(O)NC(=O)O2 (configuration not stated)
- T/C (dose: 50.0 mg/kg/injection, schedule: Q01DX005 (ip), vehicle: Klucel (hydroxypropylcellulose) (HPC)): 98 % of control
- T/C (dose: 100.0 mg/kg/injection, schedule: Q01DX005 (ip), vehicle: Klucel (hydroxypropylcellulose) (HPC)): 103 % of control
- T/C (dose: 200.0 mg/kg/injection, schedule: Q01DX005 (ip), vehicle: Klucel (hydroxypropylcellulose) (HPC)): 119 % of control

Structure (SMILES): NC(CO)C(=O)NC(CCC(=O)O)C(=O)NC(CO)C(=O)NC(CCC(=O)O)C(=O)NC(Cc1ccc(N(CCCl)CCCl)cc1)C(=O)O (configuration not stated) (H-SESE[ξPhe(4-N(CH2CH2Cl)2)]-OH; configuration not given here)
- T/C (dose: 5.0 mg/kg/injection, schedule: Q04DX003 (ip), vehicle: water): 96 % of control
- T/C (dose: 10.0 mg/kg/injection, schedule: Q04DX003 (ip), vehicle: water): 98 % of control
- T/C (dose: 20.0 mg/kg/injection, schedule: Q04DX003 (ip), vehicle: water): 101 % of control
- T/C (dose: 40.0 mg/kg/injection, schedule: Q04DX003 (ip), vehicle: water): 102 % of control and 111 % of control
- T/C (dose: 80.0 mg/kg/injection, schedule: Q04DX003 (ip), vehicle: water): 117 % of control

Structure (SMILES): C=CCOc1cc2c(cc1C(C)c1ccc(OC)c(OC)c1)OCO2 (configuration not stated)
- T/C (dose: 50.0 mg/kg/injection, schedule: Q01DX005 (ip), vehicle: saline with Tween-80): 99 % of control
- T/C (dose: 100.0 mg/kg/injection, schedule: Q01DX005 (ip), vehicle: saline with Tween-80): 100 % of control
- T/C (dose: 200.0 mg/kg/injection, schedule: Q01DX005 (ip), vehicle: saline with Tween-80): 95 % of control

Structure (SMILES): Cc1c(C)n2c(=O)n(-c3ccccc3)c(=O)n2c1=O
- T/C (dose: 60.0 mg/kg/injection, schedule: Q01DX005 (ip), vehicle: Klucel (hydroxypropylcellulose) (HPC)): 99 % of control
- T/C (dose: 120.0 mg/kg/injection, schedule: Q01DX005 (ip), vehicle: Klucel (hydroxypropylcellulose) (HPC)): 99 % of control
- T/C (dose: 240.0 mg/kg/injection, schedule: Q01DX005 (ip), vehicle: Klucel (hydroxypropylcellulose) (HPC)): 99 % of control

Structure (SMILES): COc1cc2c(C)c3ccccc3c(C)c2c2ccccc12
- T/C (dose: 100.0 mg/kg/injection, schedule: Q01DX001 (ip), vehicle: Klucel (hydroxypropylcellulose) (HPC)): 101 % of control
- T/C (dose: 200.0 mg/kg/injection, schedule: Q01DX001 (ip), vehicle: Klucel (hydroxypropylcellulose) (HPC)): 110 % of control
- T/C (dose: 400.0 mg/kg/injection, schedule: Q01DX001 (ip), vehicle: Klucel (hydroxypropylcellulose) (HPC)): 105 % of control

Structure (SMILES): C=C1C(=O)OC2C1C(OC(=O)C(C)CC)CC1(O)COC3(O)C1C2C1(C)OC13 (configuration not stated)
- T/C (dose: 6.25 mg/kg/injection, schedule: Q01DX001 (ip), vehicle: Klucel (hydroxypropylcellulose) (HPC)): 106 % of control
- T/C (dose: 12.5 mg/kg/injection, schedule: Q01DX001 (ip), vehicle: Klucel (hydroxypropylcellulose) (HPC)): 108 % of control
- T/C (dose: 25.0 mg/kg/injection, schedule: Q01DX001 (ip), vehicle: Klucel (hydroxypropylcellulose) (HPC)): 117 % of control and 90 % of control

Structure (SMILES): COC(=O)/C=C1\Sc2ccccc2NC1=O
- T/C [1]: 96 % of control
- T/C [2]: 96 % of control
- T/C [3]: 94 % of control

Structure (SMILES): CCN(CC)CCN(C)C(=O)C(O)(c1ccccc1)c1ccccc1
- T/C [6]: 100 % of control
- T/C [7]: 104 % of control
- T/C [8]: 104 % of control
- T/C [9]: 100 % of control

Structure (SMILES): CC(=O)c1c(O)c(C)c(O)c2c1OC1=Cc3c(c(C)nn3C)C(=O)C12C (configuration not stated)
- T/C (dose: 6.25 mg/kg/injection, schedule: Q01DX009 (ip), vehicle: gum acacia): 100 % of control and 109 % of control
- T/C (dose: 50.0 mg/kg/injection, schedule: Q01DX009 (ip), vehicle: gum acacia): 119 % of control and 92 % of control and 93 % of control

Structure (SMILES): CC(=O)Nc1ccc2nc3ccc(NC(C)=O)cc3[n+](-c3ccccc3)c2c1
- T/C (dose: 31.3 mg/kg/injection, schedule: Q01DX010 (ip), vehicle: saline): 177 % of control
- T/C (dose: 62.5 mg/kg/injection, schedule: Q01DX010 (ip), vehicle: saline): 204 % of control
- T/C (dose: 125.0 mg/kg/injection, schedule: Q01DX010 (ip), vehicle: saline): 200 % of control

Structure (SMILES): CN(C)CCNc1cccc2c1C(=O)c1cccc(NCCN(C)C)c1C2=O
- T/C (dose: 1.88 mg/kg/injection, schedule: Q01DX009 (ip), vehicle: water): 99 % of control
- T/C (dose: 3.75 mg/kg/injection, schedule: Q01DX009 (ip), vehicle: saline): 101 % of control
- T/C (dose: 3.75 mg/kg/injection, schedule: Q01DX009 (ip), vehicle: water): 98 % of control
- T/C (dose: 7.5 mg/kg/injection, schedule: Q01DX009 (ip), vehicle: saline): 102 % of control
- T/C (dose: 7.5 mg/kg/injection, schedule: Q01DX009 (ip), vehicle: water): 110 % of control
- T/C (dose: 15.0 mg/kg/injection, schedule: Q01DX009 (ip), vehicle: saline): 98 % of control
- T/C (dose: 15.0 mg/kg/injection, schedule: Q01DX009 (ip), vehicle: water): 108 % of control
- T/C (dose: 30.0 mg/kg/injection, schedule: Q01DX009 (ip), vehicle: water): 106 % of control

Structure (SMILES): CC(=O)Nc1c(Cl)c(Cl)c2c(c1Cl)Cc1cc(Cl)ccc1-2
- T/C (dose: 12.5 mg/kg/injection, schedule: Q01DX009 (ip), vehicle: saline): 103 % of control
- T/C [6]: 104 % of control
- T/C (dose: 25.0 mg/kg/injection, schedule: Q01DX009 (ip), vehicle: suspension in saline): 91 % of control
- T/C [7]: 107 % of control
- T/C (dose: 50.0 mg/kg/injection, schedule: Q01DX009 (ip), vehicle: suspension in saline): 87 % of control
- T/C (dose: 100.0 mg/kg/injection, schedule: Q01DX009 (ip), vehicle: suspension in saline): 91 % of control

Structure (SMILES): CCc1ccc(NC(=O)NC(=O)c2c(F)cccc2F)cc1
- T/C [10]: 114 % of control
- T/C [6]: 106 % of control
- T/C [1]: 106 % of control and 116 % of control
- T/C [7]: 103 % of control and 115 % of control
- T/C [2]: 100 % of control and 120 % of control
- T/C [8]: 101 % of control and 98 % of control
- T/C [3]: 120 % of control and 97 % of control
- T/C [9]: 100 % of control and 103 % of control

Structure (SMILES): Clc1ccc(N=Cc2c3ccccc3cc3ccccc23)c(Cl)c1
- T/C (dose: 6.25 mg/kg/injection, schedule: Q01DX009 (ip), vehicle: saline with Tween-80): 101 % of control
- T/C (dose: 12.5 mg/kg/injection, schedule: Q01DX009 (ip), vehicle: saline with Tween-80): 101 % of control
- T/C [10]: 93 % of control

Structure (SMILES): CCOC(=O)Cc1cc2c(cc1C)CNC(=O)C2
- T/C (dose: 6.25 mg/kg/injection, schedule: Q01DX009 (ip), vehicle: distilled water + Tween-80): 94 % of control
- T/C [4]: 100 % of control
- T/C [5]: 100 % of control
- T/C (dose: 50.0 mg/kg/injection, schedule: Q01DX009 (ip), vehicle: distilled water + Tween-80): 94 % of control
- T/C (dose: 100.0 mg/kg/injection, schedule: Q01DX009 (ip), vehicle: distilled water + Tween-80): 94 % of control
- T/C (dose: 200.0 mg/kg/injection, schedule: Q01DX009 (ip), vehicle: distilled water + Tween-80): 90 % of control
- T/C (dose: 400.0 mg/kg/injection, schedule: Q01DX009 (ip), vehicle: distilled water + Tween-80): 102 % of control
